In US8765422B2, “D4 desaturases and D5 elongases” (priority 2007, dated 2014):
Where “and” joins values, the source holds several entries; their conditions need not be identical. Identical values can stand only once.

Legend:
[1] = test system: Δ4-desaturase from Thraustochytrium ONC-T18; test: Δ4-desaturase (clone pYDes) expressed in Saccharomyces cerevisiae INVSc1, fed free fatty acid substrate, percent conversion by FAME GC; format: cell-based, Thraustochytrium sp. ONC-T18; details: for increase With 0.01% ferric citrate: conversion with 0.01% ferric citrate versus without; for % conversion average, vector pYDes: pYDes in INVSc1, 500 μM substrate, GC-FID of FAMEs; for % conversion average, vector pYDes / % conversion With 0.01% ferric citrate: 96 hours at 20° C.; for % conversion average (substrate to product) / % conversion With 0.01% ferric citrate: pYDes in yeast; for % conversion average (substrate to product): 500 μM free fatty acid substrate, 20° C., (product)/(substrate+product)*100; for % conversion With 0.01% ferric citrate: 500 μM substrate
Procedure: (§1) The activity and specificity of the D4-desaturase and D5 elongase were determined using the yeast expression system. The transformed yeast was grown in SC-U medium containing 2% glucose, 1% Tergitol NP-40 for 48 hrs, 150 RPM at 30° C. A substrate medium was prepared containing SC-U, 2% galactose, 1% raffinose, 1% Tergitol NP-40 and 500 μM specific free fatty acid. The transformed yeast culture was inoculated into 100 ml substrate medium at an OD600 of 0.5 and cultures incubated at 20° C. for 5 days. The biomass was recovered by centrifugation at 2000 RPM for 5 min, washed once with 100 mM phosphate buffer (pH 7.0), then freeze dried. Fatty acid methyl ester gas chromatography was subsequently carried out to determine the efficiency of fatty acid desaturation and elongation. The percent conversion of the substrate was determined by calculating (product)/(substrate+product)*100.
Clone pYDes, which consisted of the full length Δ4-desaturase cloned into pYES2 (Invitrogen, Carlsbad, Calif.), and clone pYElo, which consisted of the full-length Δ5-elongase gene in pYES2, were transformed into competent Saccharomyces cerevisiae INVSc1. Yeast transformation was carried out using the S. c. EasyComp Transformation kit (Invitrogen, Carlsbad, Calif.) according to conditions specified by the manufacturer. Transformants were selected for uracil auxotrophy on media lacking uracil (SC-Ura). To detect the specific desaturase activity of these clones, transformants were grown in the presence of 500 μM specific fatty acid substrates as listed below: A) Docosapentaenoic acid (22:5n-3) (conversion to docosahexaenoic acid would indicate Δ4-desaturase activity), B) Docosatetraenoic acid (22:4n-6) (conversion to docosapentaenoic acid (22:5n-6) would indicate Δ4-desaturase activity), C) Dihomo-gamma-linolenic acid (20:3n-6) (conversion to arachidonic acid (20:4n-6) would indicate Δ5-desaturase activity), D) Eicosapentaenoic acid (20:5n-3) (conversion to docosapentaenoic acid (22:5n-3) would indicate Δ5-elongase activity), E) Arachidonic acid (20:4n-6) (conversion to docosatetraenoic acid (22:4n-6) would indicate Δ5-elongase activity)
The negative control strain was INVSc1 containing the unaltered pYES2 vector, and these were grown simultaneously. The cultures were vigorously agitated (150 rpm) and grown for 96 hours at 20° C. in the presence of 500 μM (final concentration) of the various substrates. The cells were pelleted and washed in 100 mM phosphate buffer, pH 7.0, cell pellets were freeze dried. The lipids were then extracted and derivitized to fatty acid methyl esters (FAME) for gas chromatography analysis (GC). Transesterification and extraction was done using 100 mg freeze dried cells, with C19:0 as internal standard, added transesterification reaction mix (methanol: hydrochloric acid: chloroform, 10:1:1) mixed and heated at 90° C. for 2 hours, then allowed to cool at room temperature. FAMEs were extracted by adding 1 ml water, and 2 ml hexane: chloroform (4:1), and allow organic and aqueous phases to separate. The organic layer was extracted and treated with 0.5 g of anhydrous sodium sulfate to remove particulates and residual water. The organic solvents were evaporated under a stream of argon. The FAMEs were resuspended in iso-octane and analysed by GC-FID. The percent conversion was calculated by dividing the product produced by the sum of (the product produced+the substrate added) and then multiplying by 100.
Clone pYDes, which consisted of the full length Δ4-desaturase cloned into pYES2 (Invitrogen, Carlsbad, Calif.), was transformed into competent Saccharomyces cerevisiae INVSc1. The negative control strain was INVSc1 containing the unaltered pYES2 vector, and these were grown simultaneously.

[2] = test system: Δ5-elongase from Thraustochytrium ONC-T18; test: Δ5-elongase (clone pYElo) expressed in Saccharomyces cerevisiae INVSc1, fed free fatty acid substrate, percent conversion by FAME GC; format: cell-based, Thraustochytrium sp. ONC-T18; details: pYElo in yeast
Procedure: as §1, with “(product)/(substrate+product)*100. […]” for “(product)/(substrate+product)*100.”
The negative control strain was INVSc1 containing the unaltered pYES2 vector, and these were grown simultaneously. […] The FAMEs were resuspended in iso-octane and analysed by GC-FID. The percent conversion was calculated by dividing the product produced by the sum of (the product produced+the substrate added) and then multiplying by 100. […]

For `CC/C=C\C/C=C\C/C=C\C/C=C\C/C=C\CCCCCC(=O)O` [DPA, Docosapentaenoic acid (22:5n-3)], the “increase With 0.01% ferric citrate” value [1] was 2.75 fold, the “% conversion average, vector pYDes” value [1] was 14% and the “% conversion average, vector pYDes” value ([1]; listed as C22:5 n-3) was 14.04%. The “% conversion average (substrate to product)” value [1] was 14.04%, the “% conversion average (substrate to product)” value ([1]; listed as DPA n-3) was 14% and the “% conversion With 0.01% ferric citrate” value [1] was 38.70%. The “DPA to DHA conversion on addition of ferric citrate to the media” value ([1]; pYDes, trace metal ferric citrate added) was “increase”.
`CCCCC/C=C\C/C=C\C/C=C\CCCCCCC(=O)O` [DGLA, Dihomo-gamma-linolenic acid (20:3n-6)] was tested, and the “% conversion average, vector pYDes” value [1] was 0.87%.
`CCCCC/C=C\C/C=C\C/C=C\C/C=C\CCCCCC(=O)O` [DTA, Docosatetraenoic acid (22:4n-6)] was tested, and the “increase With 0.01% ferric citrate” value [1] was 2.43 fold, the “% conversion average, vector pYDes” value [1] was 14% and the “% conversion average, vector pYDes” value ([1]; listed as C22:4 n-6) was 13.76%. For the same compound, the “% conversion average (substrate to product)” value [1] was 14% and 13.76% and the “% conversion With 0.01% ferric citrate” value [1] was 33.43%.
In the case of `CCCCC/C=C\C/C=C\C/C=C\C/C=C\CCCC(=O)O` [ARA, Arachidonic acid (20:4n-6)], the “conversion of substrate by pYElo” value [2] is reported as “minimal conversion”.
For `CC/C=C\C/C=C\C/C=C\C/C=C\C/C=C\CCCC(=O)O` [EPA, Eicosapentaenoic acid (20:5n-3)], the “conversion of substrate by pYElo” value [2] was “minimal conversion”.
